Experimental data: patent US20100234417A1, “THYROTROPIN RELEASING HORMONE RECEPTOR-OREXIN RECEPTOR HETERO-DIMERS/-OLIGOMERS” (DIMERIX BIOSCIENCE PTY LTD., priority 2006, published 2010)
Ends that are not written are not given here.

Experiments:
[1] = tested on: thyrotropin releasing hormone receptor/orexin receptor hetero-dimer/-oligomer (OxR2 with HA-TRHR); experiment: eBRET: OxR2/Rluc8 + barr2/Venus + HA-TRHR as IG3; type: cell-based; conditions: FIG. 18
Protocol: (§1) Briefly, referring to FIGS. 1 to 3, the IGs are provided in the form of the two receptors (TRHR and OxR). One of the two is attached to an RC (IG1-RC1, IG3). A second IG (IG2-RC2) is derived from a molecule that interacts with the receptors upon ligand binding (e.g. beta-arrestin, or a mutant thereof).
Cells were seeded in 6-well plates at a density of approximately 630,000 cells/well (HEK293FT) or approximately 150,000 cells/well (COS-7) and maintained at 37° C., 5% CO2 in Complete Media (DMEM containing 0.3 mg/ml glutamine, 100 IU/ml penicillin and 100 μg/ml streptomycin (Gibco)) supplemented with 10% fetal calf serum (FCS; Gibco). […] Filtered light emissions were sequentially measured for 3-5 s in each of the ‘donor wavelength window’ (400-475 nm) and ‘acceptor wavelength window’ (>500 nm for EGFP or 520-540 nm for EYFP, Topaz (TYFP) or Venus). […] In this case, data are shown as ‘fluorescence/luminescence’ being the ratio of light emission through the ‘acceptor wavelength window’ over the 400-475 nm emission for a particular cell sample. Unless otherwise stated, BRET signals were measured in 96-well microplates.
Referring now to FIG. 18, eBRET signals were measured from cells transiently co-expressing OxR2/Rluc8 and barr2/Venus either with HA-TRHR or pcDNA3.

[2] = tested on: TRHR335 with TRHR; experiment: eBRET: TRHR335/Rluc + EGFP/barr1 + TRHR as IG3; type: cell-based; conditions: FIG. 9
Source text: as §1, with “thereof). The detection system not only detects the formation of the TRHR-OxR heterodimer but can distinguish whether a ligand or drug acts as an agonist, partial agonist, antagonist, inverse agonist or partial inverse agonist at the receptor hetero-dimer.” for “thereof).”
Cells were seeded in 6-well plates at a density of approximately 630,000 cells/well (HEK293FT) or approximately 150,000 cells/well (COS-7) and maintained at 37° C., 5% CO2 in Complete Media (DMEM containing 0.3 mg/ml glutamine, 100 IU/ml penicillin and 100 μg/ml streptomycin (Gibco)) supplemented with 10% fetal calf serum (FCS; Gibco). […] BRET measurements were taken at 37° C. using the Victor Light plate reader with Wallac 1420 software (Perkin-Elmer). Filtered light emissions were sequentially measured for 3-5 s in each of the ‘donor wavelength window’ (400-475 nm) and ‘acceptor wavelength window’ (>500 nm for EGFP or 520-540 nm for EYFP, Topaz (TYFP) or Venus). […] Unless otherwise stated, BRET signals were measured in 96-well microplates. […]

eBRET signal reached (ligand-induced BRET ratio) ([1]; gradual increase over time)	time to eBRET signal peak [1] [min]	Compound	eBRET signal [2]
0.05		NC(=O)[C@@H]1CCCN1C(=O)[C@H](Cc1cnc[nH]1)NC(=O)[C@@H]1CCC(=O)N1 [TRH, pGlu-His-Pro-NH2]	
	≤ 5	OxA: orexin A; known orexin receptor modulator, used as IG3 ligand (modulator) (QPLPDCCRQKTCSCRLYELLHGAGNHAAGILTL; ends and bridges not checked; cysteine pairing not given here; UniProt O43612 34-66, looked up)	no eBRET signal above baseline
